From patent publication US12633374B2, “Method for determining efficacy of chemotherapy treatment for a subject” (RNA Diagnostics Inc., priority 2012, dated 2026)

Legend:
[1] = system: Colon adenocarcinoma cells LS174T; assay: RNA disruption in LS174T cells; assay type: cell-based; settings: 24 hr, FIG. 20A
Description: Colon adenocarcinoma cells LS174T were incubated with Sunitinib, a receptor tyrosine kinase inhibitor. RNA was isolated from the cells and analyzed using an Agilent Bioanalyzer.
RNA was isolated from the cells and analyzed using an Agilent Bioanalyzer.

tumour sample = assay: Maximal RDI score in tumour biopsies of patients on neo-adjuvant Zometa; assay type: in vivo, human; settings: after the first cycle, FIG. 17C and 17D
Description: Biopsy samples were obtained from patients undergoing neo-adjuvant therapy with Zometa. RNA was isolated and analyzed using the Agilent Bioanalyzer. Electropherograms were analyzed using the methods 100 and 400 and the maximal RDI score was graphed for each tumour sample at each time-point.

[2] = system: A2780 ovarian cancer cells; assay: RNA disruption in drug-treated A2780 cells (Agilent Bioanalyzer electropherogram/gel); assay type: cell-based, human; settings: for Low C Area/(28S+18S) vs docetaxel dose: method 400; for RNA electropherogram banding pattern: 24 hours at 37° C.
Description: RNA was isolated from ovarian cancer cell line A2780 cells which had been treated with 10 μM docetaxel in 50% media or 20 μM epirubicin, each in 50% media. Cells were treated with the chemotherapeutic for 24 hours at 37° C. Isolated RNA was separated by microcapillary electrophoresis using the Agilent 2100 Bioanalyzer.
Cells were plated and treated with docetaxel concentrations ranging from 0.001-40 μM for 24 to 72 hours to assess the effect on cell number, RNA content, and integrity (measured using a Bioanalyzer 2100 from Agilent Technologies, Inc.).
RNA was isolated and electrophoretically separated on an Agilent Bioanalyzer. As shown in FIG. 9D bands appeared just below the 28S (e.g. intermediate) and 18S bands (e.g. low banding region) at 0.005 uM and peaked at 0.2 uM.
A time course experiment was conducted in A2780 cells. Cells were treated for up to 72 hours with docetaxel at 0.005 uM and 0.2 uM. RNA was isolated and run on an Agilent Bioanalyzer.
Plots of the combination of features Intermediate Area/(28S+18S) and Low C Area/(28S+18S) were generated using the method 400 although method 300 may also be used.

A2780 cells = assay: Recovery Assay after docetaxel treatment; assay type: cell-based, human; settings: 0.2 uM docetaxel up to 72 hours, washed, replated in drug-free media, FIG. 9C
Description: A Recovery Assay was next carried out to determine if A2780 cells could recover from treatment with 0.2 uM docetaxel. A2780 cells were treated with 0.2 uM docetaxel for up to 72 hours and then washed and replated in drug-free media.

[3] = system: A2780 ovarian cancer cells; assay: Cell counts of A2780 cells treated with docetaxel; settings: up to 72 hours, FIG. 9A
Description: A2780 cells were treated for up to 72 hours with docetaxel at 0.005 uM and 0.2 uM. Cell counts were measured at each time-point.

xenograft tumours = assay: RNA from docetaxel-treated xenograft tumours after storage in liquid nitrogen or saline (Agilent 2100 Bioanalyzer); assay type: in vivo; parameters: 18S Area / 28S Area / RNA Area: unit not given here
Description: RNA isolated from xenograft tumours stored in liquid nitrogen, RNALater™ solution or left in saline for 1h, 2h, 5h and 24h to induce autocatalytic degradation was analyzed by measuring an RNA Integrity Number (RIN) using Agilent 2100 Bioanalyzer. […] Circles above the gel lanes indicate that an RIN number could be calculated (FIG. 8A). Circles encapsulated by squares indicate samples for which an RIN number could not be calculated. Control samples were untreated xenograft tumours (1-7). Treated samples (8-12) were given docetaxel. Various measurements for the data shown in FIGS. 8B-8M follow in Tables 3.1 to 3.12.

[4] = system: docetaxel-resistant A2780DXL cells; assay: RNA disruption in docetaxel-resistant A2780 cells; assay type: cell-based, human
Description: A docetaxel A2780 resistant cell line was made as described in Li et al., Int. J. Mol. Med 2004 14(20): 257-264.
A time course experiment was conducted. Sensitive parental and docetaxel resistant A2780 cells were treated with docetaxel for 24 hours. RNA was isolated and run on an Agilent Bioanalyzer.

[5] = system: A2780 ovarian cancer cells; assay: Amount of RNA per cell in A2780 cells treated with docetaxel; assay type: cell-based, human
Description: A2780 cells treated for up to 72 hours with docetaxel at 0.005 uM and 0.2 uM, were analyzed for the amount of RNA per cell. RNA was isolated and electophoretically separated using an Agilent Bioanalyzer.

[6] = system: Jurkat T leukemia cell line; settings: Fimognari et al 2009; cited from earlier work
[7] = system: Colon adenocarcinoma cells SW480; assay: RNA disruption in SW480 cells; assay type: cell-based; settings: 72 hr, FIG. 20C
Description: Colon adenocarcinoma cells SW480 were incubated with Epirubicin, a DNA synthesis inhibitor. RNA was isolated from the cells and analyzed using an Agilent Bioanalyzer. RNA Disruption is evident at 72 hr at […] (see FIG. 20C).

[8] = system: A2780 ovarian cancer cells; assay: Effect of caspase inhibitor on RNA integrity changes in docetaxel-treated cells; assay type: cell-based, human; settings: FIG. 9J
Description: The effect of a caspase inhibitor on RNA integrity changes was next assessed. Cells were treated with or without docetaxel at a concentration of 0.2 uM in the presence or absence of the caspase inhibitor Q-DEVD-OPH (Biovision Laboratories) at a concentration of 10 uM.

[9] = tumour left in saline 1h, sample 9
[10] = tumour left in saline 2h, sample 10
[11] = tumour left in saline 5h, sample 11
[12] = tumour left in saline 24h, sample 12
[13] = tumour stored in liquid nitrogen, sample 8

With `CCN(CC)CCNC(=O)c1c(C)[nH]c(/C=C2\C(=O)Nc3ccc(F)cc32)c1C` [Sunitinib] the “concentration at which RNA Disruption is evident” value [1] was 54 mM.
With `O=P(O)(O)C(O)(Cn1ccnc1)P(=O)(O)O` [Zometa] the RDI values (tumour sample) was “increased in some patients”.
With `CC(=O)O[C@@]12CO[C@@H]1C[C@H](O)[C@@]1(C)C(=O)[C@H](O)C3=C(C)[C@@H](OC(=O)[C@H](O)[C@@H](NC(=O)OC(C)(C)C)c4ccccc4)C[C@@](O)([C@@H](OC(=O)c4ccccc4)[C@H]21)C3(C)C` [docetaxel] the “Low C Area/(28S+18S) vs docetaxel dose” value ([2]; 8 hr, 24 hr, or 48 hr) was “Little change”, the “docetaxel concentration at which banding below 28S and 18S peaked” value ([2]; 24 hours, 0 to 40 uM, FIG. 9D) was 0.2 µM and the “docetaxel concentration at which bands appeared just below the 28S and 18S bands” value ([2]; 24 hours, 0 to 40 uM, FIG. 9D) was 0.005 µM. The “docetaxel concentration at which additional bands are visible on gel” value ([2]; FIG. 9D, 24 hours) was 0.05 µM, the “docetaxel concentrations giving dose and time-dependent reductions in cell number and cell RIN values while RDI increased” value ([2]; RDI = Intermediate Area/(28S+18S)) was at least 0.1 µM and the “Low C Area/(28S+18S) vs docetaxel dose” value ([2]; after 72 hr) was “dramatic increase”. The “Intermediate/(28S+18S)” value ([2]; docetaxel 0.005 uM and 0.2 uM, 24 to 72 hours, FIG. 9F) was “increases dramatically with time”, the “Low banding area/(28S+18S)” value ([2]; docetaxel 0.005 uM and 0.2 uM, 24 to 72 hours, FIG. 9G) was “also increases with time” and the “RNA banding in time course” value ([2]; docetaxel 0.005 uM and 0.2 uM, up to 72 hours, FIG. 9H) was “banding appears below the 28S and 18S bands at all time-points”. The “RNA electropherogram banding pattern” value ([2]; docetaxel 10 μM in 50% media, FIG. 2) was “shows an intermediate peak and a peak adjacent to the 18S peak”, the RIN ([2]; docetaxel concentrations ≥0.005 uM) was “did not change significantly” and the “docetaxel concentration at which banding appears below the 28S and 18S bands” value ([2]; sensitive parental cells, 24 hours, FIG. 9I) was 0.005 µM. For the same compound, the “resumption of cell proliferation after drug withdrawal” value (A2780 cells) was “No resumption of cell proliferation”, the “docetaxel concentrations at which cell numbers remained constant” value [3] was “greater than or equal to 0.005 uM” and the “18S % of total Area” value (xenograft tumours; [9]) was 8.3%. The “18S Area” value (xenograft tumours; [9]) was 13.2, the “28S % of total Area” value (xenograft tumours; [9]) was 6.4% and the “28S Area” value (xenograft tumours; [9]) was 10.2. The “RNA Area” value (xenograft tumours; [9]) was 158.5, the “RNA Concentration” value (xenograft tumours; [9]) was 85 ng/µL and the “rRNA Ratio [28 s/18 s]” value (xenograft tumours; [9]) was 0.8. For the same compound, the “18S % of total Area” value (xenograft tumours; [10]) was 9.8%, the “18S Area” value (xenograft tumours; [10]) was 27.3 and the “28S % of total Area” value (xenograft tumours; [10]) was 6.6%. For the same compound, the “28S Area” value (xenograft tumours; [10]) was 18.5, the “RNA Area” value (xenograft tumours; [10]) was 278.5 and the “RNA Concentration” value (xenograft tumours; [10]) was 150 ng/µL. For the same compound, the “RNA Integrity Number (RIN)” value (xenograft tumours; [10]) was 6.5 (B.02.06), the “RNA Ratio [28 s/18 s]” value (xenograft tumours; [10]) was 0.7 and the “18S % of total Area” value (xenograft tumours; [11]) was 6.5%. The “18S Area” value (xenograft tumours; [11]) was 15.4, the “28S % of total Area” value (xenograft tumours; [11]) was 6.6% and the “28S Area” value (xenograft tumours; [11]) was 15.4. For the same compound, the “RNA Area” value (xenograft tumours; [11]) was 235.4, the “RNA Concentration” value (xenograft tumours; [11]) was 127 ng/µL and the “rRNA Ratio [28 s/18 s]” value (xenograft tumours; [11]) was 1.0. For the same compound, the “18S % of total Area” value (xenograft tumours; [12]) was 1.1%, the “18S Area” value (xenograft tumours; [12]) was 1.9 and the “RNA Area” value (xenograft tumours; [12]) was 168.9. For the same compound, the “RNA Concentration” value (xenograft tumours; [12]) was 91 ng/µL, the “RNA Integrity Number (RIN)” value (xenograft tumours; [12]) was 2.7 (B.02.06) and the “rRNA Ratio [28 s/18 s]” value (xenograft tumours; [12]) was 0.0. For the same compound, the “18S % of total Area” value (xenograft tumours; [13]) was 18.4%, the “18S Area” value (xenograft tumours; [13]) was 46.1 and the “28S % of total Area” value (xenograft tumours; [13]) was 21.8%. The “28S Area” value (xenograft tumours; [13]) was 54.6, the “RNA Area” value (xenograft tumours; [13]) was 250.5 and the “RNA Concentration” value (xenograft tumours; [13]) was 135 ng/µL. The “RNA Integrity Number (RIN)” value (xenograft tumours; [13]) was 9.1 (B.02.06), the “rRNA Ratio [28 s/18 s]” value (xenograft tumours; [13]) was 1.2 and the “RNA disruption and cellular RNA content” value ([4]; A2780DXL cells treated with docetaxel) was “did not result in RNA disruption or changes in cellular RNA content”. For the same compound, the “RNA banding below the 28S and 18S bands” value ([4]; resistant cells, docetaxel 24 hours, FIG. 9I) was “no banding is evident”, the “amount of RNA per cell” value ([5]; docetaxel 0.005 uM and 0.2 uM, up to 72 hours, FIG. 9B) was “increase in a time-dependent and dose-dependent manner” and the “RNA content per cell” value ([5]; low docetaxel concentrations) was “increased per cell”.
For `COc1cccc2c1C(=O)c1c(O)c3c(c(O)c1C2=O)C[C@@](O)(C(=O)CO)C[C@@H]3O[C@H]1C[C@H](N)[C@H](O)[C@H](C)O1` [doxorubicin], the “susceptibility of total RNA to chemical attack” value [6] is given as “susceptible to chemical attack”.
For `COc1cccc2c1C(=O)c1c(O)c3c(c(O)c1C2=O)C[C@@](O)(C(=O)CO)C[C@@H]3O[C@H]1C[C@H](N)[C@@H](O)[C@H](C)O1` [epirubicin], the “RNA electropherogram banding pattern” value ([2]; epirubicin 20 μM in 50% media, FIG. 3) was “intermediate bands between the 18S and 28S peaks” and the “concentration at which RNA Disruption is evident” value [7] was 0.5 mM.
For Q-DEVD-OPH, the “bands below the 28S and 18S bands” value ([8]; 0.2 uM docetaxel with or without 10 uM caspase inhibitor) was “detectable in the presence and absence” and the “effect on loss of 28S and 18S bands” value ([8]; 10 uM inhibitor with 0.2 uM docetaxel, 72 hr) was “reduces the loss of 28S and 18S bands”.
